The structures appear in SMILES notation.

In one assay the test system is Zika virus (ZIKV). In words: anti-Zika virus activity (inhibition rate). It is filed as cell-based. The note with it: for inhibition at 11 µM / inhibition at 33 µM: Zika virus.
A further assay concerns Usutu virus (USUV). In words: anti-Usutu virus activity (inhibition rate). It is filed as cell-based. Particulars: for inhibition at 11 µM / inhibition at 33 µM: Usutu virus.

As for `C=C1CC[C@@H]2[C@]3(C)COC(C)(C)O[C@@H]3CC[C@@]2(C)[C@@H]1C[C@H]1N(Nc2ccc([N+](=O)[O-])cc2)C(=O)[C@@H]2Cc3ccccc3N21` [ZDL-43], the inhibition at 11 µM with Zika virus (ZIKV) (Drug concentration 11 μM) and in the assay on Usutu virus (USUV) (Drug concentration 11 μM) was greater than 100% throughout. Also, the inhibition at 33 µM in the assay with Zika virus (ZIKV) (Drug concentration 33 μM) and with Usutu virus (USUV) (Drug concentration 33 μM) was greater than 100% in each case.

On to `O=C1[C@@H]2Cc3ccccc3CN2C(c2ccc(O)c(O)c2)N1c1ccc([N+](=O)[O-])cc1` (stereo partly shown) [ZSD-11], for which the inhibition at 11 µM in the assay on Zika virus (ZIKV) (Drug concentration 11 μM) and with Usutu virus (USUV) (Drug concentration 11 μM) was less than 0% each time. Besides, the results for the inhibition at 33 µM with Zika virus (ZIKV) (Drug concentration 33 μM) and in the assay with Usutu virus (USUV) (Drug concentration 33 μM) were greater than 100% and 0 to 100%, respectively.

With `CC(C)(C)[Si](C)(C)Oc1ccc(C2N(Nc3ccccc3)C(=O)C3CCc4ccccc4N32)cc1` (stereo not shown) [ZXD-131B], the inhibition at 11 µM in the assay with Zika virus (ZIKV) (Drug concentration 11 μM) was less than 0%; in the assay on Usutu virus (USUV) (Drug concentration 11 μM), 0 to 100%. Further, the inhibition at 33 µM in the assay with Zika virus (ZIKV) (Drug concentration 33 μM) is less than 0%.

With `O=C1[C@@H]2Cc3ccccc3CN2C(c2ccc(O)cc2)N1Nc1ccccc1` (stereo partly shown) [ZSD-20], the “Anti-ZIKV activity (inhibition rate)” value in the assay with Zika virus (ZIKV) (Drug concentration 11 μM) was “− (−: Inactive)”; in the assay with Zika virus (ZIKV) (Drug concentration 33 μM) it was “+++ (+++: Complete suppression)”. The figures for the “Anti-USUV activity (inhibition rate)” value in the assay on Usutu virus (USUV) (Drug concentration 11 μM) and in the assay on Usutu virus (USUV) (Drug concentration 33 μM) were “− (−: Inactive)” and “+ (+: Partial suppression)”, respectively.

`O=C1[C@@H]2Cc3ccccc3N2[C@@H](c2ccc(O)cc2)N1NS(=O)(=O)c1ccc([N+](=O)[O-])cc1` [ZDL-39]: the inhibition at 11 µM in the assay on Zika virus (ZIKV) (Drug concentration 11 μM) and with Usutu virus (USUV) (Drug concentration 11 μM) was less than 0% throughout. Also, the inhibition at 33 µM was 0 to 100% with Zika virus (ZIKV) (Drug concentration 33 μM) and less than 0% in the assay with Usutu virus (USUV) (Drug concentration 33 μM).

Compound `O=C1C(c2ccccc2)C(c2ccc(O)cc2)N2CCC[C@@H]12` (stereo partly shown) [ZXP-10] came in with an inhibition at 11 µM with Usutu virus (USUV) (Drug concentration 11 μM) of less than 0%. The inhibition at 33 µM in the assay on Usutu virus (USUV) (Drug concentration 33 μM) lay in the range of 0 to 100%.

On to `O=C(Nc1ccc([N+](=O)[O-])cc1)C1CCc2ccccc2N1C(=O)O` (stereo not shown) [ZXD-62], for which the results for the “Anti-ZIKV activity (inhibition rate)” value in the assay with Zika virus (ZIKV) (Drug concentration 11 μM) and with Zika virus (ZIKV) (Drug concentration 33 μM) were “− (−: Inactive)” and “+++ (+++: Complete suppression)”, respectively. Besides, the “Anti-USUV activity (inhibition rate)” value is recorded as “− (−: Inactive)” in the assay with Usutu virus (USUV) (Drug concentration 11 μM) and “+ (+: Partial suppression)” in the assay on Usutu virus (USUV) (Drug concentration 33 μM).

For the compound `O=C(NNc1ccccc1)C1CCc2ccccc2N1C(=O)OCc1ccccc1` (stereo not shown) [ZXD-51], the “Anti-ZIKV activity (inhibition rate)” value with Zika virus (ZIKV) (Drug concentration 11 μM) was “− (−: Inactive)”; in the assay with Zika virus (ZIKV) (Drug concentration 33 μM) it was “+ (+: Partial suppression)”. Further, the “Anti-USUV activity (inhibition rate)” value with Usutu virus (USUV) (Drug concentration 11 μM) and with Usutu virus (USUV) (Drug concentration 33 μM) was “− (−: Inactive)” each time.

In the assay on Usutu virus (USUV) (Drug concentration 11 μM), `O=C1C2CCc3ccccc3N2C(c2ccc(CO)cc2)N1Nc1ccccc1` (stereo not shown) [ZXD-157B] showed an inhibition at 11 µM greater than 100%.

With `O=C1[C@H]2CCc3ccccc3N2C(c2ccc(O)cc2)N1Nc1ccccc1` (stereo partly shown) [ZXD-86A], the inhibition at 11 µM with Zika virus (ZIKV) (Drug concentration 11 μM) and in the assay on Usutu virus (USUV) (Drug concentration 11 μM) was less than 0% each time. For the same compound, the inhibition at 33 µM with Zika virus (ZIKV) (Drug concentration 33 μM) was greater than 100%; in the assay with Usutu virus (USUV) (Drug concentration 33 μM), less than 0%.

On to `COc1cc([C@H]2N(Nc3ccccc3)C(=O)[C@@H]3Cc4ccccc4N32)ccc1O` [ZDL-21], for which the inhibition at 11 µM in the assay on Zika virus (ZIKV) (Drug concentration 11 μM) and in the assay with Usutu virus (USUV) (Drug concentration 11 μM) was less than 0% throughout. Besides, the inhibition at 33 µM in the assay with Zika virus (ZIKV) (Drug concentration 33 μM) is 0 to 100%; in the assay on Usutu virus (USUV) (Drug concentration 33 μM), less than 0%.

As to `O=C(Nc1ccc([N+](=O)[O-])cc1)C1CCc2ccccc2N1` (stereo not shown) [ZXD-53], the inhibition at 11 µM in the assay with Zika virus (ZIKV) (Drug concentration 11 μM) and in the assay with Usutu virus (USUV) (Drug concentration 11 μM) was less than 0% in each case. For the same compound, the inhibition at 33 µM in the assay on Zika virus (ZIKV) (Drug concentration 33 μM) was 0 to 100%; in the assay on Usutu virus (USUV) (Drug concentration 33 μM), less than 0%.

Take `O=C(NN1C(=O)[C@@H]2Cc3ccccc3N2[C@H]1c1ccc([N+](=O)[O-])cc1)c1ccc([N+](=O)[O-])cc1` [ZDL-11]: the inhibition at 11 µM in the assay on Zika virus (ZIKV) (Drug concentration 11 μM) and with Usutu virus (USUV) (Drug concentration 11 μM) was less than 0% each time. The inhibition at 33 µM with Zika virus (ZIKV) (Drug concentration 33 μM) was less than 0%; with Usutu virus (USUV) (Drug concentration 33 μM), 0 to 100%.

As to `O=C1C2CCc3ccccc3N2C(c2ccc(O)cc2)N1Nc1ccccc1` (single isomer, unassigned) [ZXD-86B], the “Anti-ZIKV activity (inhibition rate)” value with Zika virus (ZIKV) (Drug concentration 11 μM) is listed as “+ (+: Partial suppression)”; with Zika virus (ZIKV) (Drug concentration 33 μM), “+++ (+++: Complete suppression)”. The “Anti-USUV activity (inhibition rate)” value with Usutu virus (USUV) (Drug concentration 11 μM) and in the assay on Usutu virus (USUV) (Drug concentration 33 μM) was “+++ (+++: Complete suppression)” throughout.

With `O=C1[C@@H]2Cc3ccccc3CN2C(c2ccc([N+](=O)[O-])cc2)N1Nc1ccccc1` (stereo partly shown) [ZSD-18], the inhibition at 11 µM with Zika virus (ZIKV) (Drug concentration 11 μM) and in the assay with Usutu virus (USUV) (Drug concentration 11 μM) was less than 0% in each case. The inhibition at 33 µM with Zika virus (ZIKV) (Drug concentration 33 μM) and in the assay on Usutu virus (USUV) (Drug concentration 33 μM) was 0 to 100% each time.

For `O=C1[C@@H]2Cc3ccccc3CN2C(Cc2ccc(O)c(O)c2)N1Nc1ccccc1` (stereo partly shown) [ZSD-36], the “Anti-ZIKV activity (inhibition rate)” value in the assay with Zika virus (ZIKV) (Drug concentration 11 μM) and with Zika virus (ZIKV) (Drug concentration 33 μM) was “− (−: Inactive)” throughout. Moreover, the figures for the “Anti-USUV activity (inhibition rate)” value in the assay on Usutu virus (USUV) (Drug concentration 11 μM) and with Usutu virus (USUV) (Drug concentration 33 μM) were “− (−: Inactive)” and “+ (+: Partial suppression)”, respectively.

Source of the values: US20220235057A1, “CYCLIC FORMYL AND CYCLIC KETONE COMPOUNDS, PREPARATION METHOD THEREFOR, AND PHARMACEUTICAL USE” (priority 2019, published 2022).
